Data taken from ChEMBL document CHEMBL3885861, “Open TG-GATES”.

Species: Rattus norvegicus
Assay: Open TG-GATES - Regimen: Single
Type: toxicity, organism-based, Sprague-Dawley
Set-up: regimen Single, gender Male, age 6 weeks
Conditions: in vivo, po, route gavage; for gamma-GTP / ALP / ALT / AST / BUN / CRE / DBIL / GLC / IP / K / Na / PL / RALB / TBIL / TC / TG / TP / LDH / Ca: tissue Plasma; for APTT / Bas / Eos / Fbg / Hb / Ht / Lym / MCH / MCHC / MCV / Mono / Neu / PT / Plat / RBC / Ret / WBC: tissue Blood; for KIDNEY_L / KIDNEY_R / KIDNEY_TOTAL: tissue Kidney; for LIVER: tissue Liver
[1] = 300 mg/kg, 3 h, dose level Middle
[2] = 300 mg/kg, 6 h, dose level Middle
[3] = 300 mg/kg, 9 h, dose level Middle
[4] = 300 mg/kg, 24 h, dose level Middle
[5] = 1000 mg/kg, 3 h, dose level High
[6] = 1000 mg/kg, 6 h, dose level High
[7] = 1000 mg/kg, 9 h, dose level High
[8] = 1000 mg/kg, 24 h, dose level High

C[C@H](CS)C(=O)N1CCC[C@H]1C(=O)O [CAPTOPRIL]
gamma-GTP (100 mg/kg, 24 h, dose level Low): 1 IU/L
TERMINAL_BW [1]: 224.2 g
APTT [1]: 16.3 s
Bas [1]: 0%
Eos [1]: 0.8%
Fbg [1]: 204.8 mg/dL
Hb [1]: 13.2 g/dL
Ht [1]: 39.8%
Lym [1]: 83.6%
MCH [1]: 21.3 pg
MCHC [1]: 33.2%
MCV [1]: 64.1 fL
Mono [1]: 5%
Neu [1]: 10%
PT [1]: 11.6 s
Plat [1]: 117.4 x10_4/uL
RBC [1]: 620.8 x10_4/ul
Ret [1]: 6.6%
WBC [1]: 125.4 x10_2/uL
KIDNEY_L [1]: 1 g
KIDNEY_R [1]: 1 g
KIDNEY_TOTAL [1]: 2 g
LIVER [1]: 11.2 g
ALP [1]: 845.8 IU/L
ALT [1]: 33.4 IU/L
AST [1]: 61.8 IU/L
BUN [1]: 17 mg/dL
CRE [1]: 0.4 mg/dL
DBIL [1]: 0.006 mg/dL
GLC [1]: 209.4 mg/dL
IP [1]: 9.3 mg/dL
K [1]: 5 meq/L
Na [1]: 138 meq/L
PL [1]: 130 mg/dL
RALB [1]: 3.7 g/dL
TBIL [1]: 0.4 mg/dL
TC [1]: 70.8 mg/dL
TG [1]: 68.6 mg/dL
TP [1]: 5.4 g/dL
gamma-GTP [1]: 1.4 IU/L
TERMINAL_BW [2]: 221.9 g
APTT [2]: 16.4 s
Bas [2]: 0%
Eos [2]: 1.2%
Hb [2]: 12.9 g/dL
Ht [2]: 39%
Lym [2]: 80%
MCH [2]: 21 pg
MCHC [2]: 33%
MCV [2]: 63.5 fL
Mono [2]: 6.6%
Neu [2]: 12.2%
PT [2]: 12.1 s
Plat [2]: 116.7 x10_4/uL
RBC [2]: 615 x10_4/ul
Ret [2]: 8.2%
WBC [2]: 113.8 x10_2/uL
KIDNEY_L [2]: 1 g
KIDNEY_R [2]: 1 g
KIDNEY_TOTAL [2]: 2 g
ALP [2]: 734.8 IU/L
ALT [2]: 32 IU/L
AST [2]: 55 IU/L
BUN [2]: 21.8 mg/dL
CRE [2]: 0.6 mg/dL
DBIL [2]: 0.026 mg/dL
GLC [2]: 197.4 mg/dL
K [2]: 4.8 meq/L
LDH [2]: 92.4 IU/L
Na [2]: 139 meq/L
PL [2]: 133.6 mg/dL
RALB [2]: 3.5 g/dL
TBIL [2]: 0.5 mg/dL
TC [2]: 73.6 mg/dL
TG [2]: 50.4 mg/dL
TP [2]: 5.1 g/dL
gamma-GTP [2]: 2 IU/L
TERMINAL_BW [3]: 222.6 g
APTT [3]: 15.9 s
Bas [3]: 0%
Eos [3]: 0.8%
Fbg [3]: 204 mg/dL
Hb [3]: 13 g/dL
Ht [3]: 39.5%
Lym [3]: 79.2%
MCH [3]: 21.4 pg
MCHC [3]: 32.8%
MCV [3]: 65.4 fL
Mono [3]: 4.8%
Neu [3]: 15.2%
PT [3]: 12.3 s
RBC [3]: 604.2 x10_4/ul
Ret [3]: 8.6%
KIDNEY_L [3]: 1 g
KIDNEY_R [3]: 1 g
KIDNEY_TOTAL [3]: 2 g
LIVER [3]: 9.4 g
ALP [3]: 667 IU/L
ALT [3]: 35.4 IU/L
AST [3]: 55.8 IU/L
BUN [3]: 16.8 mg/dL
CRE [3]: 0.4 mg/dL
DBIL [3]: 0.078 mg/dL
GLC [3]: 208.6 mg/dL
K [3]: 5 meq/L
LDH [3]: 72.6 IU/L
Na [3]: 139.6 meq/L
PL [3]: 139.6 mg/dL
RALB [3]: 3.7 g/dL
TBIL [3]: 0.3 mg/dL
TC [3]: 78.8 mg/dL
TG [3]: 49 mg/dL
TP [3]: 5.3 g/dL
gamma-GTP [3]: 2 IU/L
TERMINAL_BW [4]: 235.1 g
APTT [4]: 16.5 s
Bas [4]: 0%
Eos [4]: 0.8%
Hb [4]: 13.2 g/dL
Ht [4]: 39.8%
Lym [4]: 83.4%
MCH [4]: 21.5 pg
MCHC [4]: 33.2%
MCV [4]: 64.8 fL
Mono [4]: 5.2%
Neu [4]: 10%
PT [4]: 11.4 s
Plat [4]: 118.6 x10_4/uL
RBC [4]: 613.8 x10_4/ul
Ret [4]: 8.6%
KIDNEY_L [4]: 1 g
KIDNEY_R [4]: 1 g
KIDNEY_TOTAL [4]: 2.1 g
LIVER [4]: 11.6 g
ALT [4]: 37.6 IU/L
AST [4]: 64.8 IU/L
BUN [4]: 17.4 mg/dL
CRE [4]: 0.6 mg/dL
Ca [4]: 11.3 mg/dL
DBIL [4]: 0.02 mg/dL
GLC [4]: 189.6 mg/dL
IP [4]: 8.5 mg/dL
K [4]: 4.9 meq/L
LDH [4]: 115.6 IU/L
Na [4]: 138.8 meq/L
PL [4]: 150.6 mg/dL
RALB [4]: 4.1 g/dL
TBIL [4]: 0.3 mg/dL
TC [4]: 79.2 mg/dL
TG [4]: 86 mg/dL
TP [4]: 5.9 g/dL
gamma-GTP [4]: 0.6 IU/L
TERMINAL_BW [5]: 222.3 g
APTT [5]: 16 s
Bas [5]: 0%
Eos [5]: 1%
Fbg [5]: 204.8 mg/dL
Hb [5]: 13.6 g/dL
Ht [5]: 40.9%
Lym [5]: 76.8%
MCH [5]: 21.8 pg
MCHC [5]: 33.1%
MCV [5]: 65.9 fL
Mono [5]: 5.6%
Neu [5]: 16.4%
PT [5]: 12.1 s
Plat [5]: 118.1 x10_4/uL
RBC [5]: 621.6 x10_4/ul
Ret [5]: 8.4%
KIDNEY_L [5]: 1 g
KIDNEY_R [5]: 1 g
KIDNEY_TOTAL [5]: 2.1 g
ALP [5]: 661.2 IU/L
ALT [5]: 37 IU/L
AST [5]: 61 IU/L
BUN [5]: 17.4 mg/dL
CRE [5]: 0.5 mg/dL
DBIL [5]: 0.006 mg/dL
GLC [5]: 213 mg/dL
IP [5]: 9.8 mg/dL
K [5]: 5 meq/L
Na [5]: 137.8 meq/L
PL [5]: 133.6 mg/dL
RALB [5]: 3.5 g/dL
TBIL [5]: 0.5 mg/dL
TC [5]: 79.4 mg/dL
TG [5]: 53.8 mg/dL
TP [5]: 5.5 g/dL
gamma-GTP [5]: 1.4 IU/L
TERMINAL_BW [6]: 215.6 g
APTT [6]: 16.5 s
Bas [6]: 0%
Eos [6]: 1%
Fbg [6]: 205.6 mg/dL
Hb [6]: 13.4 g/dL
Ht [6]: 40.4%
Lym [6]: 79.6%
MCH [6]: 21.1 pg
MCHC [6]: 33.1%
MCV [6]: 63.9 fL
Mono [6]: 5.2%
Neu [6]: 14%
PT [6]: 12.6 s
RBC [6]: 632.8 x10_4/ul
Ret [6]: 8.2%
WBC [6]: 110.9 x10_2/uL
KIDNEY_L [6]: 1 g
KIDNEY_R [6]: 1 g
KIDNEY_TOTAL [6]: 2 g
LIVER [6]: 9.6 g
ALP [6]: 736.6 IU/L
ALT [6]: 32.8 IU/L
AST [6]: 57.6 IU/L
BUN [6]: 21.2 mg/dL
CRE [6]: 0.6 mg/dL
DBIL [6]: 0.02 mg/dL
GLC [6]: 211.4 mg/dL
IP [6]: 9.8 mg/dL
K [6]: 4.7 meq/L
LDH [6]: 110.4 IU/L
Na [6]: 139.6 meq/L
PL [6]: 112.8 mg/dL
RALB [6]: 3.6 g/dL
TBIL [6]: 0.5 mg/dL
TC [6]: 62.6 mg/dL
TG [6]: 48.4 mg/dL
TP [6]: 5.4 g/dL
gamma-GTP [6]: 1.6 IU/L
TERMINAL_BW [7]: 220.7 g
APTT [7]: 16.6 s
Bas [7]: 0%
Eos [7]: 1%
Fbg [7]: 201.2 mg/dL
Hb [7]: 12.7 g/dL
Ht [7]: 38.9%
Lym [7]: 77.6%
MCH [7]: 20.8 pg
MCHC [7]: 32.7%
MCV [7]: 63.4 fL
Mono [7]: 4.8%
Neu [7]: 16.6%
PT [7]: 12.4 s
Plat [7]: 113.6 x10_4/uL
RBC [7]: 613.4 x10_4/ul
Ret [7]: 8.7%
KIDNEY_L [7]: 1 g
KIDNEY_R [7]: 1 g
KIDNEY_TOTAL [7]: 2 g
LIVER [7]: 9.1 g
ALP [7]: 691.6 IU/L
ALT [7]: 36 IU/L
AST [7]: 59.4 IU/L
BUN [7]: 24.4 mg/dL
CRE [7]: 0.4 mg/dL
DBIL [7]: 0.08 mg/dL
GLC [7]: 192.2 mg/dL
IP [7]: 11 mg/dL
K [7]: 5.3 meq/L
LDH [7]: 76 IU/L
Na [7]: 140 meq/L
PL [7]: 118.2 mg/dL
RALB [7]: 3.4 g/dL
TBIL [7]: 0.5 mg/dL
TC [7]: 68.4 mg/dL
TG [7]: 27.4 mg/dL
TP [7]: 5.1 g/dL
gamma-GTP [7]: 1.8 IU/L
TERMINAL_BW [8]: 237.2 g
APTT [8]: 16.4 s
Bas [8]: 0%
Eos [8]: 1%
Hb [8]: 12.8 g/dL
Ht [8]: 38.5%
Lym [8]: 79%
MCH [8]: 21.7 pg
MCHC [8]: 33.2%
MCV [8]: 65.3 fL
Mono [8]: 5.2%
Neu [8]: 14.8%
PT [8]: 11.3 s
Plat [8]: 110.3 x10_4/uL
RBC [8]: 589.4 x10_4/ul
Ret [8]: 8.4%
WBC [8]: 95.8 x10_2/uL
KIDNEY_L [8]: 1.1 g
KIDNEY_R [8]: 1.1 g
KIDNEY_TOTAL [8]: 2.1 g
LIVER [8]: 11.8 g
ALP [8]: 971.2 IU/L
ALT [8]: 39.8 IU/L
AST [8]: 66.4 IU/L
BUN [8]: 16.8 mg/dL
CRE [8]: 0.6 mg/dL
Ca [8]: 11.1 mg/dL
DBIL [8]: 0.058 mg/dL
GLC [8]: 200.4 mg/dL
IP [8]: 8.6 mg/dL
K [8]: 4.5 meq/L
LDH [8]: 100.4 IU/L
Na [8]: 137.8 meq/L
PL [8]: 142 mg/dL
RALB [8]: 3.9 g/dL
TBIL [8]: 0.3 mg/dL
TC [8]: 81.4 mg/dL
TP [8]: 5.7 g/dL
gamma-GTP [8]: 1.2 IU/L
